Reference: ChEMBL document CHEMBL5625225, “Vinylphosphonate-based cyclic dinucleotides enhance STING-mediated cancer immunotherapy” (Eur J Med Chem, 2023)
Active and inactive are the calls of the source. The calls are words filed in the database; no cut-off is given here.

What was measured:
[1] = target: T1, Stimulator of interferon genes protein (Homo sapiens, UniProt Q86WV6); assay: Agonist activity at wild type STING (unknown origin) expressed in HEK293T cells preincubated for 30 mins followed by washout and measured after 6.5 hrs by Bright-glo luciferase assay; format: cell-based
Target sequence in this assay (Q86WV6 whole entry): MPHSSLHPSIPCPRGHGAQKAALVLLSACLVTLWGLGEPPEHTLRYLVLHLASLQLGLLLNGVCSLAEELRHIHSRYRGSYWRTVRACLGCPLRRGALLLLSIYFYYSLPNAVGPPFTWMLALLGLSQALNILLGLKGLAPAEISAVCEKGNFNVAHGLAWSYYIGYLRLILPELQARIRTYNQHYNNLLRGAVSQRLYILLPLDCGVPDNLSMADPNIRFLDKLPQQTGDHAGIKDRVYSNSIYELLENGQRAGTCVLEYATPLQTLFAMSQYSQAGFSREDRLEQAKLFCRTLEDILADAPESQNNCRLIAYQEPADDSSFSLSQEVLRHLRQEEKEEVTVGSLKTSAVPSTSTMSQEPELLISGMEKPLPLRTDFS

[2] = target: T1, Stimulator of interferon genes protein; assay: Agonist activity at wild type STING (unknown origin) expressed in HEK293T cells measured after 7 hrs by Bright-glo luciferase assay; format: cell-based
Target sequence in this assay (Q86WV6 whole entry): as above

[3] = Induction of cytokine production in human PBMC cells assessed as IFN-gamma level incubated for 60 mins followed by washout and measured after 15 hrs; format: functional, cell-based
[4] = Induction of cytokine production in human PBMC cells assessed as TNF-alpha level incubated for 60 mins followed by washout and measured after 15 hrs; format: functional, cell-based
[5] = Induction of cytokine production in human PBMC cells assessed as IFN-alpha level incubated for 60 mins followed by washout and measured after 15 hrs; format: functional, cell-based
[6] = Stability in human plasma assessed as half life at 5 uM measured upto 120 mins by UPLC/MS analysis; format: ADME, cell-free
[7] = Stability in mouse plasma assessed as half life at 5 uM measured upto 120 mins by UPLC/MS analysis; format: ADME, cell-free
4T1 [8] = assay: Antitumor immunity against mouse 4T1 cells xenografted in BALB/c syngeneic mouse model assessed as tumor growth inhibition at 2 mg/kg, IT(Intratumoral) measured upto 22 days relative to control; format: functional; settings: 4T1, 528 h, time <= 22 day, read-out: TGI
4T1 [9] = assay: Antitumor immunity against mouse 4T1 cells xenografted in BALB/c syngeneic mouse model assessed as tumor growth inhibition at 0.67 mg/kg, IT(Intratumoral) measured upto 22 days relative to control; format: functional; settings: 4T1, 528 h, time <= 22 day, read-out: TGI
[10] = Toxicity in BALB/c mouse assessed effect on body weight change at 0.22 to 2 mg/kg, IT(Intratumoral) measured upto 22 days; format: organism-based; settings: in vivo, other, 528 h, dose 0.22-2 mg/kg, time < 22 day
[11] = Toxicity in BALB/c mouse assessed effect on animal survival at 0.22 to 2 mg/kg, IT(Intratumoral) measured upto 22 days; format: organism-based; settings: in vivo, other, 528 h, dose 0.22-2 mg/kg, time < 22 day
[12] = Toxicity in BALB/c mouse assessed effect on drug tolerance at 0.22 to 2 mg/kg, IT(Intratumoral) measured upto 22 days; format: organism-based; settings: in vivo, other, 528 h, dose 0.22-2 mg/kg, time < 22 day
4T1 [13] = assay: Antitumor immunity against mouse 4T1 cells xenografted in BALB/c syngeneic mouse model assessed as reduction in tumor volume measured upto 22 days administered as IT(Intratumoral) dose; format: functional; settings: time <= 22.0 day
4T1 [14] = assay: Antitumor immunity against mouse 4T1 cells xenografted in BALB/c syngeneic mouse model assessed as increase in AH1positive CD8 T cell level at 2 mg/kg, IT(Intratumoral) measured upto 22 days; format: functional, organism-based; settings: time <= 22.0 day
[15] = target: T1, Stimulator of interferon genes protein; assay: Agonist activity at STING R232 mutant (unknown origin) expressed in digitonin -permeabilized HEK293T cells preincubated for 30 mins followed by washout and measured after 5 hrs by Bright-glo luciferase assay; format: cell-based
Target sequence in this assay (Q86WV6 whole entry, looked up, stated change not applied): as the sequence (Q86WV6 whole entry) above

[16] = target: Stimulator of interferon genes protein (Homo sapiens, UniProt Q86WV6, G230A/R293Q/R71H); assay: Agonist activity at STING R71H/G230A/R293Q mutant (unknown origin) expressed in digitonin -permeabilized HEK293T cells preincubated for 30 mins followed by washout and measured after 5 hrs by Bright-glo luciferase assay; format: cell-based
[17] = Agonist activity at STING R232H mutant (unknown origin) expressed in digitonin -permeabilized HEK293T cells preincubated for 30 mins followed by washout and measured after 5 hrs by Bright-glo luciferase assay; format: cell-based; settings: Homo sapiens, HEK-293T
[18] = target: Stimulator of interferon genes protein (Homo sapiens, UniProt Q86WV6, G230A/R293Q); assay: Agonist activity at STING G230A/R293Q mutant (unknown origin) expressed in digitonin -permeabilized HEK293T cells preincubated for 30 mins followed by washout and measured after 5 hrs by Bright-glo luciferase assay; format: cell-based
[19] = target: Stimulator of interferon genes protein (Homo sapiens, UniProt Q86WV6, R293Q); assay: Agonist activity at STING R293Q mutant (unknown origin) expressed in digitonin -permeabilized HEK293T cells preincubated for 30 mins followed by washout and measured after 5 hrs by Bright-glo luciferase assay; format: cell-based
[20] = Toxicity in BALB/c mouse assessed effect on body weight change at 0.67 to 6 mg/kg, IT(Intratumoral) measured upto 22 days; format: organism-based; settings: in vivo, other, 528 h, dose 0.67-6 mg/kg, time < 22 day
[21] = Toxicity in BALB/c mouse assessed effect on animal survival at 0.67 to 6 mg/kg, IT(Intratumoral) measured upto 22 days; format: organism-based; settings: in vivo, other, 528 h, dose 0.67-6 mg/kg, time < 22 day
[22] = Toxicity in BALB/c mouse assessed effect on drug tolerance at 0.67 to 6 mg/kg, IT(Intratumoral) measured upto 22 days; format: organism-based; settings: in vivo, other, 528 h, dose 0.67-6 mg/kg, time < 22 day
[23] = Toxicity in BALB/c mouse assessed body weight loss at 6 mg/kg, IT(Intratumoral) measured after 7 days relative to control; format: organism-based; settings: in vivo, other, 168 h, time 7 day
[24] = system: Stimulator of interferon genes protein (Homo sapiens), Q86WV6 [UNDEFINED MUTATION]; settings: filed as agonist
Description: Binding affinity to STING R232 mutant (unknown origin) assessed as change in melting temperature by differential scanning fluorimetry analysis

[25] = system: Stimulator of interferon genes protein (Homo sapiens), Q86WV6 [G230A,R293Q]; settings: filed as agonist
Stimulator of interferon genes protein (Homo sapiens), Q86WV6 [G230A,R293Q], sequence (Q86WV6 whole entry G230A/R293Q): as the sequence (Q86WV6 whole entry) above, with G230A, R293Q counted along it
Description: Binding affinity to STING G230A/R293Q mutant (unknown origin) assessed as change in melting temperature by differential scanning fluorimetry analysis

Stimulator of interferon genes protein (Homo sapiens, UniProt Q86WV6, R293Q), sequence (Q86WV6 whole entry R293Q): as the sequence (Q86WV6 whole entry) above, with R293Q counted along it
Stimulator of interferon genes protein (Homo sapiens, UniProt Q86WV6, G230A/R293Q/R71H), sequence (Q86WV6 whole entry R71H/G230A/R293Q): as the sequence (Q86WV6 whole entry) above, with R71H, G230A, R293Q counted along it
Stimulator of interferon genes protein (Homo sapiens, UniProt Q86WV6, G230A/R293Q), sequence (Q86WV6 whole entry G230A/R293Q): as the sequence (Q86WV6 whole entry) above, with G230A, R293Q counted along it
Stimulator of interferon genes protein (Homo sapiens), Q86WV6 [UNDEFINED MUTATION], sequence (Q86WV6 whole entry, looked up, stated change not applied): as the sequence (Q86WV6 whole entry) above

Row | Compound | EC50 [1] [nM] | EC50 [2] [nM] | EC50 ([3]; pbmc) [nM] | EC50 ([4]; pbmc) [nM] | EC50 ([5]; pbmc) [nM] | half-life at 5 µM [6] [min] | half-life at 5 µM [7] [min] | EC50 ([3]; Homo sapiens, PBMC) [nM] | EC50 ([4]; Homo sapiens, PBMC) [nM] | EC50 ([5]; Homo sapiens, PBMC) [nM] | Activity (4T1 [13]) | also measured
1 | CC1(C(=O)OCOP2(=O)/C=C/[C@H]3O[C@@H](n4cnc5c(N)ncnc54)[C@H](F)[C@@H]3OP(=O)(OCOC(=O)C3(C)CCCCC3)OC[C@H]3O[C@@H](n4cnc5c(N)ncnc54)[C@H](F)[C@@H]3O2)CCCCC1 (stereo in doubt; 14C) [listing 1 of 2 here] | 30 | 13 | 70 | 60 | 110 | 130 | 21 |  |  |  |  | inhibition in vivo at 2 mg/kg (4T1 [8]): 80%; inhibition in vivo at 0.67 mg/kg (4T1 [9]): 70%; Activity [10]: Non-Toxic; Activity [11]: Non-Toxic; Activity [12]: Non-Toxic
2 | CC1(C(=O)OCOP2(=O)/C=C/[C@H]3O[C@@H](n4cnc5c(N)ncnc54)[C@H](F)[C@@H]3OP(=O)(OCOC(=O)C3(C)CCCCC3)OC[C@H]3O[C@@H](n4cnc5c(N)ncnc54)[C@H](F)[C@@H]3O2)CCCCC1 (stereo in doubt; 14C) [listing 2 of 2 here] |  |  |  |  |  |  |  |  |  |  | Dose-Dependent Effect | Activity (4T1 [14]): Active
3 | Nc1ncnc2c1ncn2[C@@H]1O[C@@H]2/C=C\P(=O)(O)O[C@H]3[C@@H](F)[C@H](n4cnc5c(N)ncnc54)O[C@@H]3COP(=O)(O)O[C@H]2[C@H]1F | 50100 | 21500 |  |  |  |  |  | 36000 | 76000 | 110000 | Dose-Dependent Effect | EC50 [15]: 30 nM; EC50 [16]: 100 nM; EC50 [17]: 12000 nM; EC50 [18]: 100 nM; EC50 [19]: 1050 nM; Activity [20]: Non-Toxic; Activity [21]: Non-Toxic; Activity [22]: Non-Toxic; Activity [23]: 3%; ΔTm [24]: 6 °C; ΔTm [25]: 11.3 °C

Continued, in another order:

Row | EC50 [1] [nM] | EC50 [2] [nM] | EC50 ([3]; pbmc) [nM] | EC50 ([4]; pbmc) [nM] | EC50 ([5]; pbmc) [nM] | half-life at 5 µM [6] [min] | half-life at 5 µM [7] [min] | Compound | EC50 ([3]; Homo sapiens, PBMC) [nM] | EC50 ([4]; Homo sapiens, PBMC) [nM] | EC50 ([5]; Homo sapiens, PBMC) [nM] | Activity (4T1 [13]) | also measured
4 | 10 | 12 | 50 | 40 | 60 | 49 | 4 | CC(C)(C)C(=O)OCOP1(=O)/C=C/[C@H]2O[C@@H](n3cnc4c(N)ncnc43)[C@H](F)[C@@H]2OP(=O)(OCOC(=O)C(C)(C)C)OC[C@H]2O[C@@H](n3cnc4c(N)ncnc43)[C@H](F)[C@@H]2O1 (stereo in doubt; 11C) |  |  |  |  | 
5 | 5 | 3 | 170 | 280 | 120 | 19 | 3 | CCCCCCCC(=O)OCOP1(=O)/C=C/[C@H]2O[C@@H](n3cnc4c(N)ncnc43)[C@H](F)[C@@H]2OP(=O)(OCOC(=O)CCCCCCC)OC[C@H]2O[C@@H](n3cnc4c(N)ncnc43)[C@H](F)[C@@H]2O1 (stereo in doubt; 15C) |  |  |  |  | 
6 | 35 | 7 |  |  |  | 86 | 4 | CCC(C)(C)C(=O)OCOP1(=O)/C=C/[C@H]2O[C@@H](n3cnc4c(N)ncnc43)[C@H](F)[C@@H]2OP(=O)(OCOC(=O)C(C)(C)CC)OC[C@H]2O[C@@H](n3cnc4c(N)ncnc43)[C@H](F)[C@@H]2O1 (stereo in doubt; 13C) | 20 | 120 | 60 |  | 
